According to patent US8962844B2, “1,3,4-oxadiazole and 1,3,4-thiadiazole β-lactamase inhibitors” (priority 2012, dated 2015):
Counter-ions that a name gives are not always drawn.

How the values were obtained:
[1] = system: bacterial strains that express the class D cephalosporinase OXA-15; experiment: Standard BLI potentiation MIC / synergy MIC (sMIC) assays run in the presence of a β-lactam, OXA-15 expressing strains; format: cell-based, E. coli; conditions: BLI in combination with a β-lactam; comparison with Avibactam (comparator compound CCC)
Outline: (§1)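 Isogenic E. coli DH10B carrying cloned β-lactamase genes on pBR322-derived plasmid (blaTEM-1 promoter, tetracycline 25 μg/mL) tested by CLSI broth microdilution in CAMHB. Test compound and β-lactam each diluted and combined; MIC reported in presence of β-lactam.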

[2] = system: bacterial strains that express KPC β-lactamases; experiment: Standard BLI potentiation MIC / synergy MIC (sMIC) assays run in the presence of a β-lactam, KPC expressing strains; format: cell-based; conditions: more active for at least one KPC strain and/or better spectrum of activity than Avibactam; BLI in combination with a β-lactam
Outline: as §1

Row | SMILES | activity against bacterial strains that express the class D cephalosporinase OXA-15, compared with Avibactam [1] | activity and/or spectrum of activity against bacterial strains that express KPC β-lactamases, compared with Avibactam [2]
1 | O=C1N2C[C@@H](CC[C@H]2c2nnc([C@@H]3CCNC3)o2)N1OS(=O)(=O)O [Compound 759, (2S,5R)-7-oxo-2-(5-((R)-pyrrolidin-3-yl)-1,3,4-oxadiazol-2-yl)-1,6-diazabicyclo[3.2.1]octan-6-yl hydrogen sulfate] | more active than Avibactam | more active than Avibactam
2 | N[C@@H]1CN[C@H](c2nnc([C@@H]3CC[C@@H]4CN3C(=O)N4OS(=O)(=O)O)o2)C1 [Compound 760, (2S,5R)-2-(5-((2S,4S)-4-aminopyrrolidin-2-yl)-1,3,4-oxadiazol-2-yl)-7-oxo-1,6-diazabicyclo[3.2.1]octan-6-yl hydrogen sulfate] | more active than Avibactam | more active than Avibactam
3 | N[C@H]1CN[C@@H](c2nnc([C@@H]3CC[C@@H]4CN3C(=O)N4OS(=O)(=O)O)o2)C1 [Compound 761, (2S,5R)-2-(5-((2R,4R)-4-aminopyrrolidin-2-yl)-1,3,4-oxadiazol-2-yl)-7-oxo-1,6-diazabicyclo[3.2.1]octan-6-yl hydrogen sulfate] | more active than Avibactam | more active than Avibactam
4 | N[C@H]1CN[C@H](c2nnc([C@@H]3CC[C@@H]4CN3C(=O)N4OS(=O)(=O)O)o2)C1 [Compound 762, (2S,5R)-2-(5-((2S,4R)-4-aminopyrrolidin-2-yl)-1,3,4-oxadiazol-2-yl)-7-oxo-1,6-diazabicyclo[3.2.1]octan-6-yl hydrogen sulfate] | more active than Avibactam | more active than Avibactam
5 | N[C@@H]1CN[C@@H](c2nnc([C@@H]3CC[C@@H]4CN3C(=O)N4OS(=O)(=O)O)o2)C1 [Compound 763, (2S,5R)-2-(5-((2R,4S)-4-aminopyrrolidin-2-yl)-1,3,4-oxadiazol-2-yl)-7-oxo-1,6-diazabicyclo[3.2.1]octan-6-yl hydrogen sulfate] | more active than Avibactam | more active than Avibactam
6 | O=C1N2C[C@@H](CC[C@H]2c2nnc(CC3CCNC3)o2)N1OS(=O)(=O)O (stereo partly drawn) [Compound 764, (2S,5R)-7-oxo-2-(5-(pyrrolidin-3-ylmethyl)-1,3,4-oxadiazol-2-yl)-1,6-diazabicyclo[3.2.1]octan-6-yl hydrogen sulfate] | more active than Avibactam | more active than Avibactam
7 | O=C1N2C[C@@H](CC[C@H]2c2nnc(CN[C@H]3CCNC3)o2)N1OS(=O)(=O)O [Compound 765, (2S,5R)-7-oxo-2-(5-(((S)-pyrrolidin-3-ylamino)methyl)-1,3,4-oxadiazol-2-yl)-1,6-diazabicyclo[3.2.1]octan-6-yl hydrogen sulfate] | more active than Avibactam | more active than Avibactam
8 | O=C1N2C[C@@H](CC[C@H]2c2nnc(CN[C@@H]3CCNC3)o2)N1OS(=O)(=O)O [Compound 766, (2S,5R)-7-oxo-2-(5-(((R)-pyrrolidin-3-ylamino)methyl)-1,3,4-oxadiazol-2-yl)-1,6-diazabicyclo[3.2.1]octan-6-yl hydrogen sulfate] | more active than Avibactam | more active than Avibactam
9 | N=C1NCC(c2nnc([C@@H]3CC[C@@H]4CN3C(=O)N4OS(=O)(=O)O)o2)N1 (stereo partly drawn) [Compound 767, (2S,5R)-2-(5-(2-iminoimidazolidin-4-yl)-1,3,4-oxadiazol-2-yl)-7-oxo-1,6-diazabicyclo[3.2.1]octan-6-yl hydrogen sulfate] | more active than Avibactam | more active than Avibactam
10 | N[C@H]1CC[C@@H](c2nnc([C@@H]3CC[C@@H]4CN3C(=O)N4OS(=O)(=O)O)o2)C1 [Compound 768, (2S,5R)-2-(5-((1R,3S)-3-aminocyclopentyl)-1,3,4-oxadiazol-2-yl)-7-oxo-1,6-diazabicyclo[3.2.1]octan-6-yl hydrogen sulfate] | more active than Avibactam | more active than Avibactam
11 | O=C1N2C[C@@H](CC[C@H]2c2nnc(CCNC3CCNCC3)o2)N1OS(=O)(=O)O [Compound 770, (2S,5R)-7-oxo-2-(5-(2-(piperidin-4-ylamino)ethyl)-1,3,4-oxadiazol-2-yl)-1,6-diazabicyclo[3.2.1]octan-6-yl hydrogen sulfate] | more active than Avibactam | more active than Avibactam
12 | O=C1N2C[C@@H](CC[C@H]2c2nnc(CCCNC3CCNCC3)o2)N1OS(=O)(=O)O [Compound 771, (2S,5R)-7-oxo-2-(5-(3-(piperidin-4-ylamino)propyl)-1,3,4-oxadiazol-2-yl)-1,6-diazabicyclo[3.2.1]octan-6-yl hydrogen sulfate] | more active than Avibactam | more active than Avibactam
13 | O=C1N2C[C@@H](CC[C@H]2c2nnc(CCCCNC3CCNCC3)o2)N1OS(=O)(=O)O [Compound 772, (2S,5R)-7-oxo-2-(5-(4-(piperidin-4-ylamino)butyl)-1,3,4-oxadiazol-2-yl)-1,6-diazabicyclo[3.2.1]octan-6-yl hydrogen sulfate] | more active than Avibactam | more active than Avibactam
14 | NC1CCN(Cc2nnc([C@@H]3CC[C@@H]4CN3C(=O)N4OS(=O)(=O)O)o2)CC1 [Compound 774, (2S,5R)-2-(5-((4-aminopiperidin-1-yl)methyl)-1,3,4-oxadiazol-2-yl)-7-oxo-1,6-diazabicyclo[3.2.1]octan-6-yl hydrogen sulfate] | more active than Avibactam | more active than Avibactam
15 | O=C1N2C[C@@H](CC[C@H]2c2nnc(CCN3CCNCC3)o2)N1OS(=O)(=O)O [Compound 776, (2S,5R)-7-oxo-2-(5-(2-(piperazin-1-yl)ethyl)-1,3,4-oxadiazol-2-yl)-1,6-diazabicyclo[3.2.1]octan-6-yl hydrogen sulfate] | more active than Avibactam | more active than Avibactam
16 | O=C1N2C[C@@H](CC[C@H]2c2nnc(CN3CCNCC3)o2)N1OS(=O)(=O)O [Compound 777, (2S,5R)-7-oxo-2-(5-(piperazin-1-ylmethyl)-1,3,4-oxadiazol-2-yl)-1,6-diazabicyclo[3.2.1]octan-6-yl hydrogen sulfate] | more active than Avibactam | more active than Avibactam
17 | O=C1N2C[C@@H](CC[C@H]2c2nnc([C@H]3CNCCN3)o2)N1OS(=O)(=O)O [Compound 779, (2S,5R)-7-oxo-2-(5-((R)-piperazin-2-yl)-1,3,4-oxadiazol-2-yl)-1,6-diazabicyclo[3.2.1]octan-6-yl hydrogen sulfate] | more active than Avibactam | more active than Avibactam
18 | C[n+]1ccc(-c2nnc([C@@H]3CC[C@@H]4CN3C(=O)N4OS(=O)(=O)[O-])o2)cc1 [Compound 782, (2S,5R)-2-(5-(1-methylpyridin-1-ium-4-yl)-1,3,4-oxadiazol-2-yl)-7-oxo-1,6-diazabicyclo[3.2.1]octan-6-yl sulfate] | more active than Avibactam | more active than Avibactam
19 | N[C@H]1C[C@H](c2nnc([C@@H]3CC[C@@H]4CN3C(=O)N4OS(=O)(=O)O)s2)C1 [Compound 783, (2S,5R)-2-(5-((1r,3S)-3-aminocyclobutyl)-1,3,4-thiadiazol-2-yl)-7-oxo-1,6-diazabicyclo[3.2.1]octan-6-yl hydrogen sulfate] | more active than Avibactam | more active than Avibactam
